Laboratory results taken from patent publication US9000022B2 (Exelixis Patent Company LLC, priority 2005, dated 2015).

What follows are molecules tested on LXRα and/or LXRβ (assay: Co-transfection assay (LXRE luciferase reporter, CV-1 cells)). Settings: tested as described in Example 33; IC50 or EC50 for LXRα and/or LXRβ, isoform not specified; read-out: activity (IC50 or EC50 for LXR).
Assay type: cell-based, human
Source text: To measure the ability of compounds to activate or inhibit the transcriptional activity of LXR in a cell based assay, the co-transfection assay was used. It has been shown that LXR functions as a heterodimer with RXR. For the co-transfection assay, expression plasmids for LXR and RXR are introduced via transient transfection into mammalian cells along with a luciferase reporter plasmid that contains one copy of a DNA sequence that is bound by LXR-RXR heterodimers (LXRE; Willy, P. et. al. 1995). Treatment of transfected cells with an LXR agonist increases the transcriptional activity of LXR, which is measured by an increase in luciferase activity.
CV-1 African Green Monkey Kidney Cells Co-transfection expression plasmids, comprising full-length LXRα (pCMX-h LXRα, LXRβ (pCMX-hLXRβ), or RXRα (pCMX-RXR), reporter plasmid (LXREx1-Tk-Luciferase), and control (pCMX-Galactosidase expression vector) (Willey et al. Genes & Development 9 1033-1045 (1995)). Transfection reagent such as FuGENE6 (Roche). 1× Cell lysis buffer (1% Triton X 100 (J T Baker X200-07), 10% Glycerol (J T Baker M778-07), 5 mM Ditriotreitol (Quantum Bioprobe DTT03; add fresh before lysing), 1 mM EGTA (Ethylene Glycol-bis(B-Amino ethyl ether)-N,N,N′,N′-Tetracetic Acid) (Sigma E-4378), 25 mM Tricine (ICN 807420) pH 7.8) 1× Luciferase assay buffer (pH at 7.8) (0.73 mM ATP, 22.3 mM Tricine, 0.11 mM EDTA, 33.3 mM DTT) 1× Luciferrin/CoA (11 mM Luciferin, 3.05 mM Coenzyme A, 10 mM HEPES)
CV-1 cells were prepared 24 hours prior to the experiment by plating them into T-175 flasks or 500 cm^2 dishes in order to achieve 70-80% confluency on the day of the transfection. The number of cells to be transfected was determined by the number of plates to be screened. Each 384 well plate requires 1.92×10^6 cells or 5000 cells per well. DNA Transfection Reagent was prepared by mixing the required plasmid DNAs with a cationic lipid transfection reagent FuGENE6 (Roche) by following the instructions provided with the reagents. Optimal DNA amounts were determined empirically per cell line and size of vessel to be transfected. 10-12 mL of media was added to the DNA Transfection Reagent and this mixture was added to the cells after aspirating media from the T175 cm^2 flask. Cells were then incubated at least 5 hours at 37° C. to prepare screening cells.
Luciferase assay reagent was prepared by combining before use (per 10 mL): 10 mL 1× Luciferase assay buffer; 0.54 mL of 1× Luciferrin/CoA; 0.54 mL of 0.2 M Magnesium sulfate
Assay plates were prepared by dispensing 5 μL, of compound per well of a 384 well plate to achieve final compound concentration of 10 μM and no more than 1% DMSO. Media was removed from the screening cells, the cells trypsinized, harvested cells by centrifugation, counted, and plated at a density of approximately 5000 cells per well in the 384 well assay plate prepared above in a volume of about 45 μL. Assay plates containing both compounds and screening cells (50 μL in total volume) were incubated for 20 hours at 37° C.
After incubation with compounds, media was removed from the cells and lysis buffer (30 μL/well) added. After 30 minutes at ambient temperature, luciferase assay buffer (30 μL/well) was added and the assay plates read on a luminometer (PE Biosystems Northstar reader with on-board injectors, or equivalent). Plates were read immediately after addition of luciferase assay buffer.
The LXR/LNRE co-transfection assay can be used to establish the EC50/IC50 values for potency and percent activity or inhibition for efficacy. Efficacy defines the activity of a compound relative to a high control ((N-(3-((4-fluorophenyl)-(naphthalene-2-sulfonyl)amino)propyl)-2,2-dimethylpropionamide)) or a low control (DMSO/vehicle). The dose response curves are generated from an 8 point curve with concentrations differing by ½ LOG units. Each point represents the average of 4 wells of data from a 384 well plate. […]

SMILES	IC50 or EC50 (potency, activation or inhibition)
Cc1cc(-c2cccc(S(C)(=O)=O)c2)ccc1-n1cc(C(=O)NCC(F)(F)F)nc1-c1c(Cl)cccc1Cl [Example 85, 2-(2,6-dichlorophenyl)-1-(3-methyl-3′-(methylsulfonyl)biphenyl-4-yl)-N-(2,2,2-trifluoroethyl)-1H-imidazole-4-carboxamide]	< 1000 nM
CCS(=O)(=O)c1cc(-c2ccc(-n3cc(C(C)(C)O)nc3Cc3c(Cl)cccc3Cl)cc2)ccc1CO [Example 8]	< 1000 nM
CC(C)(O)c1cn(-c2ccc(-c3cccc(S(C)(=O)=O)c3)c(F)c2)c(-c2ccccc2Cl)n1 [Example 387, 2-{2-(2-chlorophenyl)-1-[2-fluoro-3′-(methylsulfonyl)biphenyl-4-yl]-1H-imidazol-4-yl}propan-2-ol]	1000 to 10000 nM
CC(C)(O)c1cn(-c2ccc(-c3ccc(C(C)(C)O)c(S(C)(=O)=O)c3)cc2Cl)c(-c2ccccc2Cl)n1 [Example 162, 2-(3′-chloro-4′-(2-(2-chlorophenyl)-4-(2-hydroxypropan-2-yl)-1H-imidazol-1-yl)-3-(methylsulfonyl)biphenyl-4-yl)propan-2-ol]	< 1000 nM
CC(C)(O)c1cn(-c2ccc(-c3ccc(C(C)(C)O)c(S(C)(=O)=O)c3)cc2Cl)c(-c2ccccc2C(F)(F)F)n1 [Example 163, 2-(1-(3-chloro-4′-(2-hydroxypropan-2-yl)-3′-(methylsulfonyl)biphenyl-4-yl)-2-(2-(trifluoromethyl)phenyl)-1H-imidazol-4-yl)propan-2-ol]	< 1000 nM
CC(C)(O)c1cn(-c2ccc(-c3cccc(S(C)(=O)=O)c3)cc2Cl)c(-c2cccc(F)c2Cl)n1 [Example 151, 2-(1-(3-chloro-3′-(methyl-sulfonyl)biphenyl-4-yl)-2-(2-chloro-3-fluorophenyl)-1H-imidazol-4-yl)propan-2-ol]	< 1000 nM
CC(C)S(=O)(=O)c1cccc(-c2ccc(-n3cc(C(F)(F)F)nc3-c3ccccc3C(F)(F)F)cc2)c1 [Example 373, 1-{3′-[(1-methylethyl)sulfonyl]biphenyl-4-yl}-4-(trifluoromethyl)-2-[2-(trifluoromethyl)phenyl]-1H-imidazole]	< 1000 nM
Cc1cc(-c2cccc(S(C)(=O)=O)c2)ccc1-n1cc(C(C)(C)O)nc1-c1c(Cl)cccc1Cl [Example 181, 2-(2-(2,6-dichlorophenyl)-1-(3-methyl-3′-(methylsulfonyl)biphenyl-4-yl)-1H-imidazol-4-yl)propan-2-ol]	< 1000 nM
CC(C)(O)c1cn(-c2ccc(-c3ccc(C(C)(C)O)c(S(C)(=O)=O)c3)cc2)c(-c2cccc(Cl)c2Cl)n1 [Example 105, 2-(2-(2,3-dichlorophenyl)-1-(4′-(2-hydroxypropan-2-yl)-3′-(methylsulfonyl)biphenyl-4-yl)-1H-imidazol-4-yl)propan-2-ol]	< 1000 nM
FC(F)(F)c1cn(-c2ccc(Br)cn2)c(-c2ccccc2C(F)(F)F)n1 [Example 368, 5-bromo-2-{4-(trifluoromethyl)-2-[2-(trifluoro-methyl)phenyl]-1H-imidazol-1-yl}pyridine]	1000 to 10000 nM
CC(C)(C)NC(=O)c1cn(-c2ccc(-c3cccc(S(C)(=O)=O)c3)cc2Cl)c(-c2c(Cl)cccc2Cl)n1 [Example 465, N-tert-butyl-1-(3-chloro-3′-(methylsulfonyl)biphenyl-4-yl)-2-(2,6-dichlorophenyl)-1H-imidazole-4-carboxamide]	< 1000 nM
CC(C)(O)c1cn(-c2ccc(-c3ccc(CO)c(S(C)(=O)=O)c3)cc2Cl)c(-c2cccc(F)c2Cl)n1 [Example 153, 2-(2-(2-chloro-3-fluorophenyl)-1-(3-chloro-4′-(hydroxymethyl)-3′-(methylsulfonyl)biphenyl-4-yl)-1H-imidazol-4-yl)propan-2-ol]	< 1000 nM
CCS(=O)(=O)c1cccc(-c2ccc(-n3cc(C(C)(C)O)nc3Cc3cc(Cl)ccc3F)cc2)c1 [Example 482, 2-(2-(5-chloro-2-fluorobenzyl)-1-(3′-(ethylsulfonyl)biphenyl-4-yl)-1H-imidazol-4-yl)propan-2-ol]	< 1000 nM
CCC(O)(CC)c1cn(-c2ccc(-c3cccc(S(C)(=O)=O)c3)cc2)c(-c2cccc(Cl)c2Cl)n1 [Example 72, 3-(2-(2,3-dichlorophenyl)-1-(3′-(methylsulfonyl)biphenyl-4-yl)-1H-imidazol-4-yl)pentan-3-ol]	< 1000 nM
CCS(=O)(=O)c1cccc(-c2ccc(-n3cc(C(C)(C)O)nc3-c3c(F)cccc3Cl)c(C)c2)c1 [Example 188, 2-(2-(2-chloro-6-fluorophenyl)-1-(3′-(ethylsulfonyl)-3-methylbiphenyl-4-yl)-1H-imidazol-4-yl)propan-2-ol]	< 1000 nM
CCS(=O)(=O)c1cccc(-c2ccc(-n3cc(C(=O)NCC(F)(F)F)nc3-c3c(Cl)cccc3Cl)c(C)c2)c1 [Example 104, 2-(2,6-dichlorophenyl)-1-(3′-(ethylsulfonyl)-3-methylbiphenyl-4-yl)-N-(2,2,2-trifluoroethyl)-1H-imidazole-4-carboxamide]	< 1000 nM
CCS(=O)(=O)c1cccc(-c2ccc(-n3cc(C(C)(C)O)nc3-c3c(F)cccc3Cl)c(F)c2)c1 [Example 126, 2-(2-(2-chloro-6-fluorophenyl)-1-(3′-(ethylsulfonyl)-3-fluorobiphenyl-4-yl)-1H-imidazol-4-yl)propan-2-ol]	< 1000 nM
CC(C)(O)c1cn(-c2ccc(-c3cccc(S(C)(=O)=O)c3)cc2)c(Cc2cc(Cl)ccc2F)n1 [Example 474, 2-(2-(5-chloro-2-fluorobenzyl)-1-(3′-(methylsulfonyl)biphenyl-4-yl)-1H-imidazol-4-yl)propan-2-ol]	< 1000 nM
CCS(=O)(=O)c1cccc(-c2ccc(-n3cc(C(C)(C)O)nc3-c3cccc(Cl)c3Cl)c(C)c2)c1 [Example 180, 2-(2-(2,3-dichlorophenyl)-1-(3′-(ethylsulfonyl)-3-methylbiphenyl-4-yl)-1H-imidazol-4-yl)propan-2-ol]	< 1000 nM
CC(C)(O)c1cn(-c2ccc(Br)cc2)c(-c2ccccc2C(F)(F)F)n1 [Example 374, 2-{1-(4-bromophenyl)-2-[2-(trifluoromethyl)phenyl]-1H-imidazol-4-yl}propan-2-ol]	1000 to 10000 nM
NS(=O)(=O)c1cccc(-c2ccc(-c3[nH]c(C(F)(F)F)nc3-c3ccccc3Cl)cc2)c1 [Example 361, 4′-[4-(2-chlorophenyl)-2-(trifluoro-methyl)-1H-imidazol-5-yl]biphenyl-3-sulfonamide]	1000 to 10000 nM
CC(C)(O)c1cn(-c2ccc(-c3cccc(NC(=O)c4ccc5c(c4)OCO5)c3)cc2)c(-c2ccccc2Cl)n1 [Example 391, N-{4′-[2-(2-chlorophenyl)-4-(1-hydroxy-1-methylethyl)-1H-imidazol-1-yl]biphenyl-3-yl}-1,3-benzodioxole-5-carboxamide]	1000 to 10000 nM
C/C(=N\O)c1cn(-c2ccc(-c3cccc(S(C)(=O)=O)c3)cc2C)c(-c2ccccc2C(C)C)n1 [Example 76, (E)-1-(2-(2-isopropylphenyl)-1-(3-methyl-3′-(methylsulfonyl)biphenyl-4-yl)-1H-imidazol-4-yl)ethanone oxime]	< 1000 nM
